In patent US20250082630A1, “METHODS OF TREATING BRAIN TUMOURS AND NEUROBLASTOMAS” (AstraZeneca AB, priority 2021, published 2025):

Assays:
Assay type in all cases: cell-based
BRCA2 (−/−) DLD1 cells = assay: PARP proliferation assay (7 day compound dosing), BRCA2 (−/−) DLD1; settings: Homo sapiens, DLD-1, 168 h, read-out: BRCA2 −/− DLD-1 prolif. 7 d IC50
Protocol: DLD1 and BRCA2 (−/−) DLD1 cells were harvested to a density of 5000 cells/ml and 2.5E4 cells/ml respectively in complete media, 40 μL/well seeded into 384-well plates (Greiner, Kremsmunster, Austria; 781090) using a Multidrop Combi then incubated at 37° C., 5% CO2 overnight. Next day (Day 1) using a Multidrop Combi add sytox green (5ul, 2 uM) and saponin (10 ul, 0.25% stock) to a day 0 plate, seal the plate using a black adhesive lid and incubate for >3 h at it. Cells were imaged using Cell Insight (Thermo Fisher) fitted with a 4x objective. Test compounds are added using an Echo 555 and placed in incubator maintained at 37° C., 5% CO2 and incubated for 7 days. On Day 8 add sytox green (5ul, 2 uM) and then saponin (10 ul, 0.25% stock) to plates, seal the plate using a black adhesive lid and incubate for >3 h at it. Read all cells on the Cell Insight with 4× Objective. The rate of proliferation is determined in Genedata by assessing the total cell number output from the Cell Insight for Day 0 and Day 8 plates.

SJ-G2 IDH1wt ATRXmt = assay: Monotherapy treatment, SJ-G2 IDH1wt ATRXmt
Protocol: DMSO served as a vehicle control.
The plates were washed again and PBS was added.

[1] = test system: PARylation in BT245 H3K27M paediatric glioma model; assay: PARylation inhibition in paediatric glioma model
U87 IDH1 wt = assay: Combination assay PARP inhibitor with TMZ, U87 IDH1 wt
Protocol: (§1) To evaluate the activity and potency of the PARP inhibitors described herein in combination with the standard of care chemotherapy Temozolamide (TMZ), ionizing radiation (IR) and the emerging chemotherapy VAL-083, U87, SJG2 and BT245 glioblastoma cells were assayed. Parental U87 cell lines were obtained from the AstraZeneca Global Cell Bank in Alderley Park, UK and the isocistrate dehydrogenase 1 mutant cell line (IDH1 mt R1 32H) was licensed in from ATCC. The SJ-G2 (ATRX mutant) and BT245 (H3K27M mutant) cell lines were obtained from The Research Institute of the McGill University Health Centre, Montreal, QC H4A 3J1, Canada. IDH1R132 mutation was induced in SJG2 cell line to generated isogenic pair (SJG2 IDH1mt and SJG2 IDH1 wt). […]
(§2) For the nuclear count end point assay, cells were fixed for ˜15 minutes (min) by the addition of 50 μl per well of Formaldehyde (Sigma-Aldrich F8775). […] The images were acquired using CellInsight CX5 (Thermo Fisher) and analysed by measuring the total number of hoechst stained nuclei. The number of nuclei (% confluence) of the drug treated wells were normalised to the DMSO control and the growth inhibition was calculated using the combenefit software (Di Veroli et al., 2016).

[2] = test system: SJ-G2 IDH1 wt and IDH1mt isogenic pairs; assay: Combination assay PARP inhibitor with TMZ, SJ-G2 isogenic pairs
Protocol: as §1, §2

Compound: CNC(=O)c1ccc(N2CCN(Cc3ccc4nc(C)c(=O)[nH]c4c3F)CC2)c(F)n1 [Example 20, 6-fluoro-5-[4-[(5-fluoro-2-methyl-3-oxo-4H-quinoxalin-6-yl)methyl]piperazin-1-yl]-N-methyl-pyridine-2-carboxamide]
- IC50 (BRCA2 (−/−) DLD1 cells): 8 nM
- IC50 (SJ-G2 IDH1wt ATRXmt; SJ-G2, read-out: Compound 20 IC50): 2340 nM
- higher sensitivity compared to the ATRXwt U87 model (SJ-G2 IDH1wt ATRXmt; SJ-G2 ATRXmt model, monotherapy): about 40 fold
- IC95 for PARylation inhibition [1]: 4 nM
- concentration at which Compound 20 synergises with TMZ (U87 IDH1 wt): 10 µM
- lowest PARP inhibitor concentration significantly enhancing the TMZ effect [2]: 10 nM
